Experimental data reported in patent US20110166121A1 (LG LIFE SCIENCES LTD., priority 2008, published 2011).
Counter-ions that a name gives are not always drawn.

Tested on: Human platelet aggregation caused by ADP
Assay: Inhibition of ADP-induced platelet aggregation (Mimic-human PRP)
Assay type: cell-based
Conditions: 20 μM ADP, human platelet concentrate diluted with PPP, absorption at 595 nm
How it was run: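 Human PRP diluted with PPP to 3–4×10^8 platelets/mL was preincubated 20 min at room temperature with compound (0.01–30 μM, DMSO), then stimulated with 20 μM ADP. Aggregation read as A595 increase at 3 min versus 0 and 20 μM ADP controls; Ki from sigmoidal non-linear regression.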

Structure (SMILES) | Ki [nM]
CCCc1cc2c(N3CCn4c(nnc4C(F)(F)F)C3)nc(OCCC(=O)NC)nc2s1 [Example 9-66, N-Methyl-3-[6-propyl-4-(3-trifluoromethyl-5,6-dihydro-8H-[1,2,4]triazolo[4,3-a]pyrazin-7-yl)-thieno[2,3-d]pyrimidin-2-yloxy]-propionamide] | 5.2
CCCc1cc2c(N3CCn4c(nnc4C(F)(F)F)C3)nc(OCCCNC=O)nc2s1 [Example 9-90, N-{3-[6-Propyl-4-(3-trifluoromethyl-5,6-dihydro-8H-[1,2,4]triazolo[4,3-a]pyrazin-7-yl)-thieno[2,3-d]pyrimidin-2-yloxy]-propyl}-formamide] | 110
CCCc1cc2c(N3CCn4c(nnc4C(F)(F)F)C3)nc(OCCN3CCOC3=O)nc2s1 [Example 9-99, 3-{2-[6-Propyl-4-(3-trifluoromethyl-5,6-dihydro-8H-[1,2,4]triazolo[4,3-a]pyrazin-7-yl)-thieno[2,3-d]pyrimidin-2-yloxy]-ethyl}-oxazolidin-2-one] | 4
CCCc1cc2c(N3CCn4c(nnc4C(F)(F)F)C3)nc(-n3cc(N)cn3)nc2s1 [Example 9-56, 1-[6-Propyl-4-(3-trifluoromethyl-5,6-dihydro-8H-[1,2,4]triazolo[4,3-a]pyrazin-7-yl)-thieno[2,3-d]pyrimidin-2-yl]-1H-pyrazol-4-ylamine] | 30
CCCc1cc2c(N3CCn4c(nnc4C(F)(F)F)C3)nc(N3CC(O)C(NC(=O)C(C)(C)C)C3)nc2s1 (stereo not drawn) [Example 7-21, N-{4-Hydroxy-1-[6-propyl-4-(3-trifluoromethyl-5,6-dihydro-8H-[1,2,4]triazolo[4,3-a]pyrazin-7-yl)-thieno[2,3-d]pyrimidin-2-yl]-pyrrolidin-3-yl}-2,2-dimethyl-propionamide] | 21
CCCc1cc2c(N3CCn4c(nnc4C(F)(F)F)C3)nc(N3CC[C@@H](NC(C)=O)C3)nc2s1 [Example 7-3, Hydrochloric acid salt of N-{(R)-1-[6-Propyl-4-(3-trifluoromethyl-5,6-dihydro-8H-[1,2,4]triazolo[4,3-a]pyrazin-7-yl)-thieno[2,3-d]pyrimidin-2-yl]-pyrrolidin-3-yl}-acetamide] | 26
CCCc1cc2c(N3CCn4c(nnc4C(F)(F)F)C3)nc(OC[C@H]3CCCN3C(=O)C(C)C)nc2s1 [Example 8-30, 2-Methyl-1-{(R)-2-[6-propyl-4-(3-trifluoromethyl-5,6-dihydro-8H-[1,2,4]triazolo[4,3-a]pyrazin-7-yl)-thieno[2,3-d]pyrimidin-2-yloxymethyl]-pyrrolidin-1-yl}-propan-1-one] | 140
CCCc1cc2c(N3CCn4c(nnc4C(F)(F)F)C3)nc(N3CC[C@H](NC(=O)C(C)C)C3)nc2s1 [Example 7-2, Hydrochloric acid salt of N-{(S)-1-[6-Propyl-4-(3-trifluoromethyl-5,6-dihydro-8H-[1,2,4]triazolo[4,3-a]pyrazin-7-yl)-thieno[2,3-d]pyrimidin-2-yl]-pyrrolidin-3-yl}-isobutyramide] | 79
CCCC(=O)NCCNc1nc(N2CCn3c(nnc3C(F)(F)F)C2)c2cc(CCC)sc2n1 [Example 8-8, N-{2-[6-Propyl-4-(3-trifluoromethyl-5,6-dihydro-8H-[1,2,4]triazolo[4,3-a]pyrazin-7-yl)-thieno[2,3-d]pyrimidin-2-ylamino]-ethyl}-butyramide] | 85
CCCc1cc2c(N3CCn4c(nnc4C(F)(F)F)C3)nc(N3CC[C@@H](NC(=O)C(C)C)C3)nc2s1 [Example 7-5, Hydrochloric acid salt of N-{(R)-1-[6-Propyl-4-(3-trifluoromethyl-5,6-dihydro-8H-[1,2,4]triazolo[4,3-a]pyrazin-7-yl)-thieno[2,3-d]pyrimidin-2-yl]-pyrrolidin-3-yl}-isobutyramide] | 32
CCCc1cc2c(N3CCn4c(nnc4C(F)(F)F)C3)nc(NCCNC(=O)OC)nc2s1 [Example 9-32, {2-[6-Propyl-4-(3-trifluoromethyl-5,6-dihydro-8H-[1,2,4]triazolo[4,3-a]pyrazin-7-yl)-thieno[2,3-d]pyrimidin-2-ylamino]-ethyl}-carbamic acid methyl ester] | 29
CCCc1cc2c(N3CCn4c(nnc4C(F)(F)F)C3)nc(NCCNC(=O)C(C)C)nc2s1 [Example 8-9, N-{2-[6-Propyl-4-(3-trifluoromethyl-5,6-dihydro-8H-[1,2,4]triazolo[4,3-a]pyrazin-7-yl)-thieno[2,3-d]pyrimidin-2-ylamino]-ethyl}-isobutyramide] | 150
CCCc1cc2c(N3CCn4c(nnc4C(F)(F)F)C3)nc(OCCC(=O)NC3CCCC3)nc2s1 [Example 9-69, N-Cyclopentyl-3-[6-propyl-4-(3-trifluoromethyl-5,6-dihydro-8H-[1,2,4]triazolo[4,3-a]pyrazin-7-yl)-thieno[2,3-d]pyrimidin-2-yloxy]-propionamide] | 550
CCCc1cc2c(N3CCn4c(nnc4C(F)(F)F)C3)nc(N3CC(O)C(NC(=O)C(C)(CO)CO)C3)nc2s1 (stereo not drawn) [Example 7-24, 3-Hydroxy-2-hydroxymethyl-N-{4-hydroxy-1-[6-propyl-4-(3-trifluoromethyl-5,6-dihydro-8H-[1,2,4]triazolo[4,3-a]pyrazin-7-yl)-thieno[2,3-d]pyrimidin-2-yl]-pyrrolidin-3-yl}-2-methyl-propionamide] | 15
CCCc1cc2c(N3CCn4c(nnc4C(F)(F)F)C3)nc(OC(C)CNC(=O)OC)nc2s1 (stereo not drawn) [Example 9-80, {2-[6-Propyl-4-(3-trifluoromethyl-5,6-dihydro-8H-[1,2,4]triazolo[4,3-a]pyrazin-7-yl)-thieno[2,3-d]pyrimidin-2-yloxy]-propyl}-carbamic acid methyl ester] | 15
CCCc1cc2c(N3CCn4c(nnc4C(F)(F)F)C3)nc(N(C)CCNC(C)=O)nc2s1 [Example 9-40, N-(2-{Methyl-[6-propyl-4-(3-trifluoromethyl-5,6-dihydro-8H-[1,2,4]triazolo[4,3-a]pyrazin-7-yl)-thieno[2,3-d]pyrimidin-2-yl]-amino}-ethyl)-acetamide] | 22
CCCc1cc2c(N3CCn4c(nnc4C(F)(F)F)C3)nc(N3CC[C@H](N(C)C(C)=O)C3)nc2s1 [Example 9-24, N-Methyl-N-{(S)-1-[6-propyl-4-(3-trifluoromethyl-5,6-dihydro-8H-[1,2,4]triazolo[4,3-a]pyrazin-7-yl)-thieno[2,3-d]pyrimidin-2-yl]-pyrrolidin-3-yl}-acetamide] | 310
CCCc1cc2c(N3CCn4c(nnc4C(F)(F)F)C3)nc(OC[C@H]3CCCN3)nc2s1 [Example 7-36, Hydrochloric acid salt of 7-[6-Propyl-2-((R)-1-pyrrolidin-2-ylmethoxy)-thieno[2,3-d]pyrimidin-4-yl]-3-trifluoromethyl-5,6,7,8-tetrahydro-[1,2,4]triazolo[4,3-a]pyrazine] | 100
CCCc1cc2c(N3CCn4c(nnc4C(F)(F)F)C3)nc(N3CC[C@H](NC(=O)OC)C3)nc2s1 [Example 9-18, {(S)-1-[6-Propyl-4-(3-trifluoromethyl-5,6-dihydro-8H-[1,2,4]triazolo[4,3-a]pyrazin-7-yl)-thieno[2,3-d]pyrimidin-2-yl]-pyrrolidin-3-yl}-carbamic acid methyl ester] | 10
CCCc1cc2c(N3CCn4c(nnc4C(F)(F)F)C3)nc(-n3ccc(NC(C)=O)n3)nc2s1 [Example 9-54, N-{1-[6-Propyl-4-(3-trifluoromethyl-5,6-dihydro-8H-[1,2,4]triazolo[4,3-a]pyrazin-7-yl)-thieno[2,3-d]pyrimidin-2-yl]-1H-pyrazol-3-yl}-acetamide] | 130
CCCc1cc2c(N3CCn4c(nnc4C(F)(F)F)C3)nc(N3CC[C@H](NC(=O)c4ccc(Cl)s4)C3)nc2s1 [Example 9-11, 5-Chloro-thiophene-2-carboxylic Acid {(S)-1-[6-propyl-4-(3-trifluoromethyl-5,6-dihydro-8H-[1,2,4]triazolo[4,3-a]pyrazin-7-yl)-thieno[2,3-d]pyrimidin-2-yl]-pyrrolidin-3-yl}-amide] | 48
CCCc1cc2c(N3CCn4c(nnc4C(F)(F)F)C3)nc(OC[C@H]3CCN(C(C)=O)C3)nc2s1 [Example 8-37, 1-{(S)-3-[6-Propyl-4-(3-trifluoromethyl-5,6-dihydro-8H-[1,2,4]triazolo[4,3-a]pyrazin-7-yl)-thieno[2,3-d]pyrimidin-2-yloxymethyl]-pyrrolidin-1-yl}-ethanone] | 43
CCCc1cc2c(N3CCn4c(nnc4C(F)(F)F)C3)nc(OCC(C)(C)NC(C)=O)nc2s1 [Example 9-79, N-{1,1-Dimethyl-2-[6-propyl-4-(3-trifluoromethyl-5,6-dihydro-8H-[1,2,4]triazolo[4,3-a]pyrazin-7-yl)-thieno[2,3-d]pyrimidin-2-yloxy]-ethyl}-acetamide] | 3.4
CCCc1cc2c(N3CCn4c(nnc4C(F)(F)F)C3)nc(NCCN)nc2s1 [Example 7-38, Hydrochloric acid salt of N-1-[6-Propyl-4-(3-trifluoromethyl-5,6-dihydro-8H-[1,2,4]triazolo[4,3-a]pyrazin-7-yl)-thieno[2,3-d]pyrimidin-2-yl]-ethane-1,2-diamine] | 50
CCCc1cc2c(N3CCn4c(nnc4C(F)(F)F)C3)nc(N3CC(O)C(NC(=O)OC)C3)nc2s1 (stereo not drawn) [Example 9-2, {4-Hydroxy-1-[6-propyl-4-(3-trifluoromethyl-5,6-dihydro-8H-[1,2,4]triazolo[4,3-a]pyrazin-7-yl)-thieno[2,3-d]pyrimidin-2-yl]-pyrrolidin-3-yl}-carbamic acid methyl ester] | 8
CCCc1cc2c(N3CCn4c(nnc4C(F)(F)F)C3)nc(OCCC(N)=O)nc2s1 [Example 9-70, 3-[6-Propyl-4-(3-trifluoromethyl-5,6-dihydro-8H-[1,2,4]triazolo[4,3-a]pyrazin-7-yl)-thieno[2,3-d]pyrimidin-2-yloxy]-propionamide] | 6
CCCc1cc2c(N3CCn4c(nnc4C(F)(F)F)C3)nc(OCCC(=O)N(C)C)nc2s1 [Example 9-67, N,N-Dimethyl-3-[6-propyl-4-(3-trifluoromethyl-5,6-dihydro-8H-[1,2,4]triazolo[4,3-a]pyrazin-7-yl)-thieno[2,3-d]pyrimidin-2-yloxy]-propionamide] | 97
